Results on 25 molecules are retold here after patent publication US12351559B2 (Biohaven Therapeutics Ltd., priority 2014, dated 2025).

Structures are written as SMILES.

The target in the assay is T1, Kv7.2/7.3 (Homo sapiens, UniProt O43525+O43526).
T1 construct: host or cells: HEK cells, tetracycline-inducible expression
Briefly: Kv7.2/7.3 activation assay, QPatch planar patch-clamp, single concentration screen. The assay is classed as cell-based. Also on record: key: <1.2-fold increase over baseline (−); +/−: as a range from <1.2-fold increase over baseline (−) up to >6-fold increase over baseline (+++); as a range from <1.2-fold increase over baseline (−) up to >6-fold increase over baseline (+++); as a range from <1.2-fold increase over baseline (−) up to >6-fold increase over baseline (+++); >6-fold increase over baseline (+++). As to conditions: Kv7.2/Kv7.3 co-expressing HEK cells, compound 3 μM, steady-state current at end of 2 s pulse to −30 mV.

As for `Cc1cc2nc(NC(=O)C[C@](C)(O)c3ccc(F)cc3)n(C(C)(C)C)c2cc1C#N` [Example 121, (S)-N-(1-(tert-butyl)-6-cyano-5-methyl-1H-benzo[d]imidazol-2-yl)-3-(4-fluorophenyl)-3-hydroxybutanamide], the “Kv7.2/7.3 Activity: increase in current over baseline” value (from here on “Kv7.2/7.3 Activity: increase”) is “+”.

Take `Cc1cc2nc(NC(=O)C[C@](C)(O)c3ccccc3F)n(C(C)(C)C)c2cc1C#N` [Example 122, (S)-N-(1-(tert-butyl)-6-cyano-5-methyl-1H-benzo[d]imidazol-2-yl)-3-(2-fluorophenyl)-3-hydroxybutanamide]: the “Kv7.2/7.3 Activity: increase” value is on record as “++”.

For the molecule `Cc1cc2nc(NC(=O)C[C@](C)(O)c3ccccc3)n(C3CCC3)c2cc1C#N` [Example 123, (S)-N-(6-cyano-1-cyclobutyl-5-methyl-1H-benzo[d]imidazol-2-yl)-3-hydroxy-3-phenylbutanamide], the “Kv7.2/7.3 Activity: increase” value was “+/−”.

With `Cc1cc2nc(NC(=O)C[C@@](C)(O)c3ccccc3)n(C3CCC3)c2cc1C#N` [Example 124, (R)-N-(6-cyano-1-cyclobutyl-5-methyl-1H-benzo[d]imidazol-2-yl)-3-hydroxy-3-phenylbutanamide], the “Kv7.2/7.3 Activity: increase” value is recorded as “+/−”.

In the case of `Cc1cc2nc(NC(=O)C[C@](C)(O)c3ccc(F)cc3)n(C3CCC3)c2cc1C#N` [Example 125, (S)-N-(6-cyano-1-cyclobutyl-5-methyl-1H-benzo[d]imidazol-2-yl)-3-(4-fluorophenyl)-3-hydroxybutanamide], the “Kv7.2/7.3 Activity: increase” value is “+/−”.

Regarding `Cc1cc2nc(NC(=O)C[C@](C)(O)c3ccccc3F)n(C3CCC3)c2cc1C#N` [Example 126, (S)-N-(6-cyano-1-cyclobutyl-5-methyl-1H-benzo[d]imidazol-2-yl)-3-(2-fluorophenyl)-3-hydroxybutanamide], the “Kv7.2/7.3 Activity: increase” value was “++”.

In the case of `Cc1cc2nc(NC(=O)CC(C)(C)C)n(C(C)(C)C)c2cc1C#N` [Example 127, N-(1-(tert-butyl)-6-cyano-5-methyl-1H-benzo[d]imidazol-2-yl)-3,3-dimethylbutanamide], the “Kv7.2/7.3 Activity: increase” value is given as “+”.

In the case of `Cc1cc2nc(NC(=O)CC(C)(C)O)n(C(C)(C)C)c2cc1C#N` [Example 128, N-(1-(tert-butyl)-6-cyano-5-methyl-1H-benzo[d]imidazol-2-yl)-3-hydroxy-3-methylbutanamide], the “Kv7.2/7.3 Activity: increase” value was “+/−”.

In the case of `Cc1cc2nc(NC(=O)C3CC(F)(F)C3)n(C(C)(C)C)c2cc1C#N` [Example 129, N-(1-(tert-butyl)-6-cyano-5-methyl-1H-benzo[d]imidazol-2-yl)-3,3-difluorocyclobutane-1-carboxamide], the “Kv7.2/7.3 Activity: increase” value is “+/−”.

Consider `Cc1cc2nc(NC(=O)CC(C)(C)O)n(C3CCC3)c2cc1C#N` [Example 130, N-(6-cyano-1-cyclobutyl-5-methyl-1H-benzo[d]imidazol-2-yl)-3-hydroxy-3-methylbutanamide], for which the “Kv7.2/7.3 Activity: increase” value was “+/−”.

`CC(C)(O)c1ccc2nc(NC(=O)CC(O)(C(F)(F)F)C(F)(F)F)n(-c3ccc(F)cc3)c2c1` [Example 131, 4,4,4-trifluoro-N-(1-(4-fluorophenyl)-6-(2-hydroxypropan-2-yl)-1H-benzo[d]imidazol-2-yl)-3-hydroxy-3-(trifluoromethyl)butanamide]: the “Kv7.2/7.3 Activity: increase” value was “+/−”.

With `C[C@@](O)(CC(=O)Nc1nc2cc(C(F)(F)F)cc(F)c2n1C1CCC1)C(F)(F)F` [Example 132, (R)-N-(1-cyclobutyl-7-fluoro-5-(trifluoromethyl)-1H-benzo[d]imidazol-2-yl)-4,4,4-trifluoro-3-hydroxy-3-methylbutanamide], the “Kv7.2/7.3 Activity: increase” value was “+/−”.

On to `CC(C)(O)CC(=O)Nc1nc2cc(C(F)(F)F)cc(F)c2n1C1CCC1` [Example 133, N-(1-cyclobutyl-7-fluoro-5-(trifluoromethyl)-1H-benzo[d]imidazol-2-yl)-3-hydroxy-3-methylbutanamide], for which the “Kv7.2/7.3 Activity: increase” value was “+”.

In the case of `Cc1cc2nc(NC(=O)C[C@](C)(O)C(F)(F)F)n(C(C)(C)C)c2cc1C#N` [Example 134, (S)-N-(1-(tert-butyl)-6-cyano-5-methyl-1H-benzo[d]imidazol-2-yl)-4,4,4-trifluoro-3-hydroxy-3-methylbutanamide], the “Kv7.2/7.3 Activity: increase” value is on record as “+/−”.

Consider `Cc1cc2nc(NC(=O)C[C@@](C)(O)C(F)(F)F)n(C(C)(C)C)c2cc1C#N` [Example 135, (R)-N-(1-(tert-butyl)-6-cyano-5-methyl-1H-benzo[d]imidazol-2-yl)-4,4,4-trifluoro-3-hydroxy-3-methylbutanamide], for which the “Kv7.2/7.3 Activity: increase” value was “+/−”.

Turning to `CC(C)(O)CC(=O)Nc1nc2ccc(C(F)(F)F)cc2n1-c1cc(F)cc(F)c1` [Example 136, N-(1-(3,5-difluorophenyl)-6-(trifluoromethyl)-1H-benzo[d]imidazol-2-yl)-3-hydroxy-3-methylbutanamide], the “Kv7.2/7.3 Activity: increase” value is given as “+”.

Regarding `CC(C)(O)CC(=O)Nc1nc2ccc(C(F)(F)F)cc2n1-c1ccc(OC(F)(F)F)cc1` [Example 137, 3-hydroxy-3-methyl-N-(1-(4-(trifluoromethoxy)phenyl)-6-(trifluoromethyl)-1H-benzo[d]imidazol-2-yl)butanamide], the “Kv7.2/7.3 Activity: increase” value was “+”.

On to `CC1(n2c(NC(=O)C[C@](C)(O)c3ccc(F)cc3)nc3ccc(C#N)cc32)CCC1` [Example 138, (S)-N-(6-cyano-1-(1-methylcyclobutyl)-1H-benzo[d]imidazol-2-yl)-3-(4-fluorophenyl)-3-hydroxybutanamide], for which the “Kv7.2/7.3 Activity: increase” value is listed as “+”.

As to `CC1(n2c(NC(=O)C[C@](C)(O)c3ccccc3Cl)nc3ccc(C#N)cc32)CCC1` [Example 139, (S)-3-(2-chlorophenyl)-N-(6-cyano-1-(1-methylcyclobutyl)-1H-benzo[d]imidazol-2-yl)-3-hydroxybutanamide], the “Kv7.2/7.3 Activity: increase” value was “+”.

With `CC1(n2c(NC(=O)C[C@](C)(O)c3ccc(Cl)cc3)nc3ccc(C#N)cc32)CCC1` [Example 140, (S)-3-(4-chlorophenyl)-N-(6-cyano-1-(1-methylcyclobutyl)-1H-benzo[d]imidazol-2-yl)-3-hydroxybutanamide], the “Kv7.2/7.3 Activity: increase” value was “+/−”.

For `O=C(CC1(O)CCC1)Nc1nc2ccc(C(F)(F)F)cc2n1-c1cc(F)cc(F)c1` [Example 141, N-(1-(3,5-difluorophenyl)-6-(trifluoromethyl)-1H-benzo[d]imidazol-2-yl)-2-(1-hydroxycyclobutyl)acetamide], the “Kv7.2/7.3 Activity: increase” value is reported as “+”.

On to `O=C(CC1(O)CCC1)Nc1nc2ccc(C(F)(F)F)cc2n1-c1ccc(OC(F)(F)F)cc1` [Example 142, 2-(1-hydroxycyclobutyl)-N-(1-(4-(trifluoromethoxy)phenyl)-6-(trifluoromethyl)-1H-benzo[d]imidazol-2-yl)acetamide], for which the “Kv7.2/7.3 Activity: increase” value is on record as “++”.

Consider `CC(C)(O)CC(=O)Nc1nc2ccc(C(F)(F)F)cc2n1-c1ccc(F)c(F)c1` [Example 143, N-(1-(3,4-difluorophenyl)-6-(trifluoromethyl)-1H-benzo[d]imidazol-2-yl)-3-hydroxy-3-methylbutanamide], for which the “Kv7.2/7.3 Activity: increase” value is on record as “++”.

For `CC(C)(O)CC(=O)Nc1nc2ccc(C(F)(F)F)cc2n1-c1ccc(OC(F)(F)F)c(F)c1` [Example 144, N-(1-(3-fluoro-4-(trifluoromethoxy)phenyl)-6-(trifluoromethyl)-1H-benzo[d]imidazol-2-yl)-3-hydroxy-3-methylbutanamide], the “Kv7.2/7.3 Activity: increase” value is on record as “+”.

As to `O=C(CC1(O)CCC1)Nc1nc2ccc(C(F)(F)F)cc2n1-c1ccc(OC(F)(F)F)c(F)c1` [Example 145, N-(1-(3-fluoro-4-(trifluoromethoxy)phenyl)-6-(trifluoromethyl)-1H-benzo[d]imidazol-2-yl)-2-(1-hydroxycyclobutyl)acetamide], the “Kv7.2/7.3 Activity: increase” value was “++”.
